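Interpolation was linear, between the two tested concentrations surrounding the appropriate level; five concentrations were tested over 48 hours in 96-well plates. GI50 is the concentration that inhibits growth by half. TGI marks complete inhibition of growth.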 *1 amine or outer side, *2 acyl side, *3 side chain or, on linkers, in order; H or OH if unused. Where a SMILES comes first, the peptide text is derived from it. CO = O=C([*:1])[*:2]
How the values were obtained:
Assay in all cases: NCI tumour cell line growth inhibition, 48 h
OVCAR-4 ovarian = system: OVCAR-4 ovarian
MCF7 breast = system: MCF7 breast
HOP-62 NSCLC = system: HOP-62 NSCLC
NCI/ADR-RES ovarian = system: NCI/ADR-RES ovarian
DU-145 prostate = system: DU-145 prostate
NCI-H23 lung = system: NCI-H23 lung
U251 CNS = system: U251 CNS
BT-549 breast = system: BT-549 breast
MOLT-4 leukemia = system: MOLT-4 leukemia
SK-MEL-2 melanoma = system: SK-MEL-2 melanoma

SMILES | GI50 (OVCAR-4 ovarian) | TGI (OVCAR-4 ovarian) | GI50 (MCF7 breast) | TGI (MCF7 breast) | GI50 (HOP-62 NSCLC) | TGI (HOP-62 NSCLC) | GI50 (NCI/ADR-RES ovarian) | TGI (NCI/ADR-RES ovarian) | GI50 (DU-145 prostate) | TGI (DU-145 prostate) | GI50 (NCI-H23 lung) | TGI (NCI-H23 lung) | GI50 (U251 CNS) | TGI (U251 CNS) | GI50 (BT-549 breast) | TGI (BT-549 breast) | GI50 (MOLT-4 leukemia) | TGI (MOLT-4 leukemia) | TGI (SK-MEL-2 melanoma) | GI50 (SK-MEL-2 melanoma)
CCCCCCCCO/N=C\c1c2c(O)c3c(O)c(C)c4c(c3c1O)C(=O)C(C)(O/C=C\C(OC)C(C)C(OC(C)=O)C(C)C(O)C(C)C(O)C(C)/C=C\C=C(\C)C(=O)N2)O4 (stereo not given) | 1.61 µM | 5.58 µM | 1.36 µM | 5.12 µM | 1630 nM | 5.78 µM | 1930 nM | 6.99 µM | 1800 nM | 6.93 µM | 1740 nM | 6.55 µM | 1140 nM | 3.03 µM | – | – | – | – | – | –
O=C(Nc1nc(-c2ccc(Cl)cc2)cs1)c1ccc(O)c(O)c1 | 4.33 µM | 35.9 µM | 5.49 µM | 43.4 µM | 4680 nM | 17.6 µM | 3890 nM | 20.3 µM | 4430 nM | 15.9 µM | 4270 nM | 20.3 µM | 3000 nM | 13.7 µM | 3.49 µM | 17.9 µM | 2480 nM | 12.3 µM | – | –
CC(=O)NC(Cc1c[nH]c2ccccc12)C(=O)O (stereo not given) | – | > 100 µM | – | > 100 µM | – | > 100 µM | – | > 100 µM | – | > 100 µM | – | > 100 µM | – | > 100 µM | – | > 100 µM | – | – | > 100 µM | –
C/C(=N\[N+](C)(C)C)C(c1ccccc1)C1(c2ccccc2)C(c2ccccc2)=C1c1ccccc1 (stereo not given) | – | > 100 µM | – | – | – | > 100 µM | – | – | – | – | – | > 100 µM | – | > 100 µM | – | – | – | > 100 µM | > 100 µM | –
COc1ccc2c(c1)/C(=C/c1c(-c3ccc(C)cc3)nc3sc(C)cn13)C(=O)N2 | 14.2 µM | > 100 µM | 12.1 µM | > 100 µM | 19700 nM | > 100 µM | – | – | 4750 nM | > 100 µM | 6860 nM | 32.5 µM | – | – | – | – | – | – | 47.7 µM | 14.6 µM
O=C(c1cccs1)c1c(C(F)(F)F)n([O-])c2cc(C(F)(F)F)ccc2[n+]1=O | – | – | 0.187 µM | 0.41 µM | 174 nM | 0.337 µM | 216 nM | 0.585 µM | 179 nM | 0.326 µM | 348 nM | 1.27 µM | 153 nM | 0.288 µM | 0.188 µM | 0.367 µM | 75.7 nM | 0.231 µM | 2.46 µM | 0.915 µM
O=C1CC(c2ccccc2)NCN1 (stereo not given) | – | > 100 µM | – | – | – | > 100 µM | – | – | – | – | – | > 100 µM | – | > 100 µM | – | – | – | > 100 µM | > 100 µM | –
COc1ccc(/C(Cl)=C(\C=O)c2cc(OC)c(OC)c(OC)c2)cc1OC | – | > 100 µM | – | – | – | > 100 µM | – | 40.2 µM | – | > 100 µM | – | > 100 µM | – | > 61.2 µM | – | – | – | > 100 µM | > 90.5 µM | –
CCOC(=O)C(=O)Nc1ccc([N+](=O)[O-])cc1C#N | – | > 100 µM | – | – | – | > 100 µM | – | – | – | – | – | > 100 µM | – | > 100 µM | – | – | – | > 100 µM | > 100 µM | –
O=C(CCc1ccc(O)c(O)c1)c1ccc(O)c(O)c1O | – | 78.5 µM | – | 42 µM | – | – | – | > 100 µM | – | 37.2 µM | – | 61.3 µM | – | 62.4 µM | – | – | – | 89.5 µM | > 100 µM | –
CC(=O)O[C@H]1C(=O)[C@@]2(C)[C@H]([C@H](OC(=O)c3ccccc3)[C@]3(O)C[C@H](OC(=O)[C@H](OC(=O)CCC(=O)OC4CCC(S/N=C(N)/N=C(\N)N(C)C)CC4)[C@@H](NC(=O)c4ccccc4)c4ccccc4)C(C)=C1C3(C)C)[C@]1(OC(C)=O)CO[C@@H]1C[C@@H]2O (stereo not given in full) | 0.0444 µM | > 50 µM | < 0.005 µM | > 50 µM | 13.3 nM | > 50 µM | 1820 nM | > 24.4 µM | 13.5 nM | > 50 µM | 16.6 nM | > 50 µM | 8.15 nM | > 50 µM | 0.0219 µM | > 50 µM | 15.4 nM | > 50 µM | – | –
COC1=CC(C)C2C[C@H]3O[C@H](O)C[C@H]4C(C)C(=O)C(O)C([C@@]2(C)C1=O)[C@@]34C (stereo not given in full) | – | – | – | – | – | – | – | – | – | – | – | > 100 µM | – | – | – | – | – | > 100 µM | – | –
CC(C)C(NC(=O)C(CCCN=C(N)N)NC(=O)NC(Cc1ccccc1)C(=O)O)C(=O)NC(C=O)CCCN=C(N)N (stereo not drawn) ({Phe-CO}-Arg-Val-Arg-aldehyde; configuration not given here) | > 5 µM | > 5 µM | > 5 µM | > 5 µM | > 5000 nM | > 5 µM | > 5000 nM | > 5 µM | > 5000 nM | > 5 µM | > 5000 nM | > 5 µM | > 5000 nM | > 5 µM | > 5 µM | > 5 µM | – | – | > 5 µM | > 5 µM
NC1=NN(c2ccccc2)C(=O)C1C(=O)C(=O)Nc1cccc(C(F)(F)F)c1 (stereo not given) | – | > 100 µM | – | – | – | > 100 µM | – | – | – | – | – | > 100 µM | – | > 100 µM | – | – | – | > 100 µM | > 100 µM | –
CC(=O)[CH-]C(C)=O.CC(=O)[CH-]C(C)=O.CC(=O)[CH-]C(C)=O.[Cl-].[Hf+4] | > 100 µM | > 100 µM | – | – | > 100000 nM | > 100 µM | – | – | – | – | > 100000 nM | > 100 µM | > 100000 nM | > 100 µM | – | – | > 100000 nM | > 100 µM | > 100 µM | > 100 µM
O=C1NC(=O)[C@H]2C3C=CC([C@@H]12)[C@@H]1C(=O)NC(=O)[C@H]31 | – | – | – | > 100 µM | – | > 100 µM | – | > 100 µM | – | > 100 µM | – | > 100 µM | – | > 100 µM | – | > 100 µM | – | > 100 µM | > 100 µM | –
O[C@H]1[C@H]2[C@H](O)CCCN2C[C@H]1O | – | > 100 µM | – | – | – | > 100 µM | – | – | – | – | – | > 100 µM | – | > 100 µM | – | – | – | > 100 µM | > 100 µM | –
CCN(CC)CCCN1C(=O)c2c(c(C)c3c(oc4cc(O)ccc43)c2C)C1=O | 1.84 µM | 3.55 µM | – | – | 1730 nM | 3.29 µM | – | – | 1830 nM | 3.32 µM | 1850 nM | 3.72 µM | 1740 nM | 3.2 µM | 14.2 µM | 29.6 µM | – | – | 32.6 µM | 15.7 µM

From PubChem BioAssay (NCI)
